Values quoted from earlier work, collected in PMC9230590, “Pharmacokinetics and Tissue Distribution of Enavogliflozin in Mice and Rats” (Pharmaceutics, 2022).
Read-outs that look alike come from different tables or passages of the source.

Legend:
[1] = parameters: method as in PMID 32183468; conditions: mice; cited from earlier work
[2] = cited from earlier work
HbA1c = conditions: cited from earlier work
[3] = rats and humans, single oral dose of [14C]dapagliflozin; cited from earlier work
[4] = single oral administration of [14C]ipragliflozin
[5] = single oral administration of [14C]canagliflozin

For `OC[C@H]1O[C@@H](c2ccc(F)c(Cc3cc4ccccc4s3)c2)[C@H](O)[C@@H](O)[C@@H]1O` [ipragliflozin], the “ratio of AUC in kidney to AUC in plasma” value [1] is listed as 38.4 ± 5.3, the “cumulative fecal recovery of drug-related radioactivity” value [2, 4] is listed as 86.9% ± 2.6% and the “glucuronide metabolite identified in feces” value [2, 4] is listed as “about 64%”. For the same compound, the “unchanged drug identified in feces” value [2, 4] was “less than 5%”.
For `Cc1ccc([C@@H]2O[C@H](CO)[C@@H](O)[C@H](O)[C@H]2O)cc1Cc1ccc(-c2ccc(F)cc2)s1` [canagliflozin], the “fecal recovery of radioactivity” value [2, 5] is listed as 85.4–93.7%, the “hydroxylated metabolites in fecal recovery” value [2, 5] is listed as 7.6–64.3% and the “unchanged drug in fecal recovery” value [2, 5] is listed as 3.5–38.7%. The “reduction of HbA1c” value (HbA1c; untreated type 2 diabetic (T2DM) patients) was 0.97%.
For `CCOc1ccc(Cc2cc([C@@H]3O[C@H](CO)[C@@H](O)[C@H](O)[C@H]3O)ccc2Cl)cc1` [dapagliflozin], the “drug-related radioactivity (parent and glucuronide metabolite) recovered in urine” value [3] is given as “more than 90%”, the “ratio of AUC in kidney to AUC in plasma” value [1] is given as 64.6 ± 31.8 and the “reduction in HbA1c values” (HbA1c; monotherapy 2.5–10 mg, once daily for 24 weeks, untreated T2DM patients) is given as 0.67–0.84%. For the same compound, the “reduction of mean HbA1c compared with conventional monotherapy” value (HbA1c; with conventional anti-diabetes medication, meta-analysis) was 0.54%.
For `OC[C@H]1O[C@@H](c2ccc(Cl)c(Cc3ccc(O[C@H]4CCOC4)cc3)c2)[C@H](O)[C@@H](O)[C@@H]1O` [empagliflozin], the “reduction of HbA1c” value (HbA1c; empagliflozin-treated patients) is listed as 0.74–0.85%.
